{
  "source": "paper PMC3874807",
  "about": "(Bioorganic & medicinal chemistry letters, 2013)",
  "target": "BpIspF (Burkholderia pseudomallei, UniProt Q3JRA0)",
  "sequence (Q3JRA0 whole entry, looked up)": "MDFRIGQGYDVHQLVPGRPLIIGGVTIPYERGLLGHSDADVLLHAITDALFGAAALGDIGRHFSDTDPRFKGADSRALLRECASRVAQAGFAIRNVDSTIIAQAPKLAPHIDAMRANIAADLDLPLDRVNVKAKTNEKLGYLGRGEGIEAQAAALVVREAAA",
  "experiment": "biochemical",
  "assay_type": "binding",
  "data": [
    {"compound": "Oc1ccc(-n2ccnc2)cc1", "note": "[FOL955]", "values": [
      {"measurement": "Kd", "result": "> 500", "unit": "µM"}
    ]}
  ]
}
